Experimental data taken from patent US20190343907A1, “Synergistic Compositions and Methods of Achieving Homeostasis in Mammalian Systems” (priority 2017, published 2019).

How the values were obtained:
migraine headaches = assay: Case history: migraine headaches; format: in vivo, human; settings: prescription, same subject
Description: A person experienced stress-induced episodes of migraine headaches five to six times/year, each preceded by a “trigger signal” of slight dizziness or light-headedness. […] The lotion of Example 1 was supplied by the subject. […] No migraine episodes have occurred in the past eight months.

shingles = assay: Case history: shingles; format: in vivo, human; settings: prescription taken, within 1 week
Description: A person was diagnosed with shingles on the lower jaw and on the scalp. […] The subject was given the lotion of Example 1 with instructions to pre-treat the area with a menthol cream five minutes before applying the treatment cream. Twice daily application to the border of the shingles lesions along the axis of red streaks prevented further expansion of the […] lesions. In areas of blisters that had not ruptured, application of the treatment cream caused the blisters to recede and not rupture. […] Episodes of recurring post-herpetic neuralgia were treated successfully over the next six weeks with the cream giving reduction of redness, itching and pain.

## CNS(=O)(=O)Cc1ccc2[nH]cc(CCN(C)C)c2c1 [Sumatriptan]
Migraine headaches
  migraine pain relief: slow to relieve the pain

## Nc1nc2c(ncn2COCCO)c(=O)[nH]1 [acyclovir]
shingles
  relief from pain or itching: no relief from pain or itching
